Tests used:
[1] = target: human activated kallikrein enzyme (Homo sapiens, UniProt P03952); test: Plasma kallikrein inhibition, fluorogenic PFR-AMC substrate, 500 pM activated kallikrein format; format: biochemical; settings: 500 pM activated kallikrein, 300 uM PFR-AMC, 30 min preincubation, 10 min reaction; read-out: Primary Dose Response Assay: Average EC50
Procedure, shortened: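 Enzyme at 500 pM preincubated 30 min RT with inhibitors in 20 mM Tris pH 7.5, 1 mM EDTA, 150 mM NaCl, 0.1% PEG-400, 0.1% Triton X-100. Reaction started with 300 uM PFR-AMC, run 10 min RT; fluorescence read at 460 nm emission, 380 nm excitation. EC50 reported in ranges.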

plasma kallikrein = target: T1, plasma kallikrein (Homo sapiens, UniProt P03952); test: Neat human plasma assay, FXIIa contact pathway-activated, PFR-AMC substrate; format: biochemical; settings: citrated human plasma 78% final, 10 nM human FXIIa, 100 μM PFR-AMC; read-out: Human Plasma Assay: IC90
T1 construct: from tissue
Procedure, shortened: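 Citrated human plasma (78% final) with compound, contact-activated by 10 nM human FXIIa in pKal buffer pH 7.5, with 100 μM PFR-AMC. Fluorescence (360/480 nm) followed 5 min at room temperature; rates versus concentration fitted by 4-parameter equation for IC50/IC90.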

T1 sequence (P03952 391-638 limits assumed): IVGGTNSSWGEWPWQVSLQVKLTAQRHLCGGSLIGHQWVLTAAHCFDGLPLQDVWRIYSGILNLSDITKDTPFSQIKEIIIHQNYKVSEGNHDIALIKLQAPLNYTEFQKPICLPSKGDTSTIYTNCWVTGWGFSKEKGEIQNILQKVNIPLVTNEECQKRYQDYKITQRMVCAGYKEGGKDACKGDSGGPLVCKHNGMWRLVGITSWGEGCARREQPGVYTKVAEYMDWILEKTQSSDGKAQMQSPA
T1 sequence (P03952 20-390 partner limits assumed): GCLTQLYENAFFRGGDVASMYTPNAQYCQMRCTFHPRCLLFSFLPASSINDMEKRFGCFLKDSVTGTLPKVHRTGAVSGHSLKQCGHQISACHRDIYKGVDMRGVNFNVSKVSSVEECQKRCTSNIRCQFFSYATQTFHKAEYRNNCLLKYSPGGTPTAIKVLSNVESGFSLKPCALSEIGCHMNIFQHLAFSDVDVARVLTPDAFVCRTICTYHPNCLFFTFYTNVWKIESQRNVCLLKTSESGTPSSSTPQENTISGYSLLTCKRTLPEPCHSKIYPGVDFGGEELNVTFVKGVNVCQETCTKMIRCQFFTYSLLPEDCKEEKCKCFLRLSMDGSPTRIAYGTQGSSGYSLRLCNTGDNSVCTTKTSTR
Sequence of human activated kallikrein enzyme (P03952 391-638 limits assumed): as the sequence (P03952 391-638 limits assumed) above
Sequence of human activated kallikrein enzyme (P03952 20-390 partner limits assumed): as the sequence (P03952 20-390 partner limits assumed) above

| EC50 [1] [nM] | IC90 (plasma kallikrein) [nM] | SMILES |
| --- | --- | --- |
| < 1 | 1500 to 10000 | O=C(Nc1cc(NCc2cn3cc(C4CC4)cc(N4CCOCC4)c3n2)ccn1)[C@H]1C[C@@H]1c1cccc(Cl)c1 [Example 129, (1S,2S)-2-(3-chlorophenyl)-N-(4-(((6-cyclopropyl-8-morpholinoimidazo[1,2-a]pyridin-2-yl)methyl)amino)pyridin-2-yl)cyclopropane-1-carboxamide] |
| < 1 | 400 to 1500 | N#Cc1ccc(Cl)cc1[C@H]1C[C@@H]1C(=O)Nc1cc(NCc2cn3cc(C4CC4)cc(N4CCCC4=O)c3n2)ccn1 (racemic) [Example 79, rac-(1S*2S*)-2-(5-chloro-2-cyanophenyl)-N-(4-(((6-cyclopropyl-8-(2-oxopyrrolidin-1-yl)imidazo[1,2-a]pyridin-2-yl)methyl)amino)pyridin-2-yl)cyclopropane-1-carboxamide] |
| < 1 | 400 to 1500 | Cc1ccc(F)c([C@H]2C[C@@H]2C(=O)Nc2cc(NCc3cn4cc(C5CC5)cc(N5CC(=O)N(C)C5=O)c4n3)ncn2)n1 (racemic) [Example 502, rac-(1S*,2S*)-N-(6-(((6-cyclopropyl-8-(3-methyl-2,4-dioxoimidazolidin-1-yl)imidazo[1,2-a]pyridin-2-yl)methyl)amino)pyrimidin-4-yl)-2-(3-fluoro-6-methylpyridin-2-yl)cyclopropane-1-carboxamide] |
| < 1 | < 400 | CCN1CCN(c2cc(C3CC3)cn3cc(CNc4cc(NC(=O)[C@H]5C[C@@H]5c5nccc(C)n5)ncn4)nc23)CC1 [Example 383, (1S,2S)-N-(6-(((6-cyclopropyl-8-(4-ethylpiperazin-1-yl)imidazo[1,2-a]pyridin-2-yl)methyl)amino)pyrimidin-4-yl)-2-(4-methylpyrimidin-2-yl)cyclopropane-1-carboxamide] |
| < 1 | 400 to 1500 | CN(c1cc(C2CC2)cn2cc(CNc3ccnc(NC(=O)[C@H]4C[C@@H]4c4cccc(Cl)c4)c3)nc12)S(C)(=O)=O [Example 128, (1S,2S)-2-(3-chlorophenyl)-N-(4-(((6-cyclopropyl-8-(N-methylmethylsulfonamido)imidazo[1,2-a]pyridin-2-yl)methyl)amino)pyridin-2-yl)cyclopropane-1-carboxamide] |
| < 1 | 400 to 1500 | Cc1ccnc([C@H]2C[C@@H]2C(=O)Nc2cc(N[C@H](C)c3cn4cc(C5CC5)cc(S(C)(=O)=O)c4n3)nc(C)n2)n1 [Example 361, (1S,2S)-N-(6-(((R)-1-(6-cyclopropyl-8-(methylsulfonyl)imidazo[1,2-a]pyridin-2-yl)ethyl)amino)-2-methylpyrimidin-4-yl)-2-(4-methylpyrimidin-2-yl)cyclopropane-1-carboxamide] |
| < 1 | < 400 | Cc1ccnc([C@H]2C[C@@H]2C(=O)Nc2cc(OCc3cn4cc(C5CC5)cc(N5CC(=O)N(CCN(C)C)C5=O)c4n3)nc(C)n2)n1 [Example 564, (1S,2S)-N-(6-((6-cyclopropyl-8-(3-(2-(dimethylamino)ethyl)-2,4-dioxoimidazolidin-1-yl)imidazo[1,2-a]pyridin-2-yl)methoxy)-2-methylpyrimidin-4-yl)-2-(4-methylpyrimidin-2-yl)cyclopropane-1-carboxamide] |
| < 1 | 1500 to 10000 | Cc1ccnc([C@H]2C[C@@H]2C(=O)Nc2cc(NCc3cn4cc(C5CC5)cc(N5CC6CC6C5=O)c4n3)ncn2)n1 (relative stereo) [Example 317, rac-(1S*,2S*)—N-(6-(((6-cyclopropyl-8-(2-oxo-3-azabicyclo[3.1.0]hexan-3-yl)imidazo[1,2-a]pyridin-2-yl)methyl)amino)pyrimidin-4-yl)-2-(4-methylpyrimidin-2-yl)cyclopropane-1-carboxamide] |
| 1 to 10 | 10000 to 48000 | O=C(Nc1cc(NCc2cn3cc(C4CC4)cc(N4CC(F)C4)c3n2)ccn1)[C@H]1C[C@@H]1c1cccc(Cl)c1 [Example 125, (1S,2S)-2-(3-chlorophenyl)-N-(4-(((6-cyclopropyl-8-(3-fluoroazetidin-1-yl)imidazo[1,2-a]pyridin-2-yl)methyl)amino)pyridin-2-yl)cyclopropane-1-carboxamide] |

From patent US20240228488A1 (TAKEDA PHARMACEUTICAL COMPANY LIMITED, priority 2021, published 2024)
